From patent US6740335B1, “Liposomal camptothecin formulations” (priority 1997, dated 2004)
Where a name gives a salt, the structure may show the parent alone. Read-outs that look alike come from different tables or passages of the source.

Tests used:
[1] = test system: KBV Head/Neck Tumor MDR +; type: in vivo
Description: (§1) In all the studies performed, subcutaneous tumors implanted on the anterior flank of nude mice were allowed to grow to an established size of 200+/−50 mm^3 prior to dosing drugs.
(§2) The xenograft models included the HT29 and SW48 human colon tumor lines, and the KB and KBV head-neck tumors. Drugs were dosed at either 6 or 9 mg/kg intravenously, on a weekly schedule for 3 consecutive weeks. In the SW48 xenograft study, the animals received a total of two cycles of therapy (6 injections), with a 10 day recovery period separating the two therapeutic courses. In the HT29 xenograft study a 12 and 14 mg/kg dose group was added.

U87-MG (Astrocytoma) = experiment: 3H-thymidine incorporation cytotoxicity assay, U87-MG; type: cell-based, human; conditions: Homo sapiens, U-87 MG, 42 h, read-out: Median IC50
Description: (§3) In vitro efficacy screening has been performed using GI147211 and liposomal formulations of GI147211. […] Standard tumor cell-based cytototoxicity assays assessing ^3H-thymidine incorporation were performed.
(§4) Tumor cells were seeded into 96-well tissue culture plates (1×10^4 cells/well)≡4 h prior to experimentation. […] Positive and negative (Tris treated) control groups were included on each assay plate. Tumor cells were then labeled with 0.25 μCi of [methyl-^3H] thymidine and incubated for 42 h under tissue culture conditions (37° C., 5% CO2, 100% relative humidity), except for C6, U251, A673 and B16-F1 cells which were incubated for 24 h. Cells were then lysed, harvested onto glass-fiber filters and unincorporated [methyl-^3H] thymidine removed by filter washing. Filters were processed for scintillation counting and cpm-^3H/well determined. […] Data are presented from multiple sets of experimentation, involving multiple liposomal formulations of GI147211.

[2] = Plasma pharmacokinetics in mice, routes of administration; type: in vivo; conditions: for Vd: read-out: Vss
Description: Pharmacokinetic studies were carried out on various liposomal formulations of GI147211 in rats and mice by IV bolus administration. Plasma samples were precipitated with acetonitrile and the supematant for each sample was analyzed by reverse phase HPLC using isocratic elution and monitoring fluorescence. […] Concentration values were determined for unknown samples and quality control samples based on interpolation using a linear fit of the standard samples. In each study the average plasma concentration at each time point was calculated and utilized in the pharmacokinetic analysis. Noncompartmental analysis were carried out using WinNonlin™ (Standard Edition, version 1.5 ©, Scientific Consulting, Inc.) and the following parameters were calculated: the maximum concentration extrapolated at zero time (Cmax), the area under the curve from zero to infinite time (AUC total), the terminal phase half life (t½), the clearance rate (C1), and the volume of distribution at steady state (Vss).
Animals received a 1 mg/kg dose by intravenous (I.V.) intraperatoneal (I.P.) or subcutaneous administration and plasma samples were collected over 24 hours.

A673 (Rhabdomyosarcoma) = experiment: 3H-thymidine incorporation cytotoxicity assay, A673; type: cell-based, human; conditions: Homo sapiens, A673, 24 h; read-out: Median IC50
Description: as §3, §4

SW48 human colon tumor = experiment: Xenograft efficacy at identical dose, SW48; type: in vivo, nude mice; conditions: SW48, 9 mg/kg, QD7 × 3, two cycles; for % TGI: day 35, dihydrochloride
Description: as §1, §2

[3] = test system: H460 (Lung, Non-Small Cell); experiment: 3H-thymidine incorporation cytotoxicity assay, H460; type: cell-based, human; conditions: Homo sapiens, NCI-H460, 42 h; read-out: Median IC50
Description: as §3, §4

[4] = test system: DU-145 (prostate carcinoma); experiment: 3H-thymidine incorporation cytotoxicity assay, DU-145; type: cell-based, human; conditions: Homo sapiens, DU-145, 42 h; read-out: Median IC50
Description: as §3, §4

[5] = mouse, plasma, iv, 1 mg/kg, 1 mg/kg IV bolus
[6] = mouse, plasma, iv, 1 mg/kg, I.V.

CCC1(O)C(=O)OCc2c1cc1n(c2=O)Cc2c-1nc1cc3c(cc1c2CN1CCN(C)CC1)OCCO3 (stereo in doubt) [GI147211, 7-(4-methylpiperazinomethylene)-10,11-ethylenedioxy-20(S)-camptothecin dihydrochloride]
Log 10 Cell Kill ([1]; KBV, 9 mg/kg iv, QD7 × 3): 0.125 | T-C (time to reach 1,000% Tumor Volume, treated vs control) ([1]; KBV, 9 mg/kg iv, QD7 × 3): 2 days | % TGI ([1]; KBV, 9 mg/kg iv, QD7 × 3, day 18): 11% | activity in the MDR+ tumor model KBV ([1]; identical dose and schedule): essentially inactive | IC50 (U87-MG (Astrocytoma)): 2.36 ng/mL | AUC (total) ([2]; 1 mg/kg IV bolus): 140 ng·h/mL | AUC (total) ([2]; 1 mg/kg, I.P.): 47 ng·h/mL | AUC (total) ([2]; 1 mg/kg, I.V.): 140 ng·h/mL | Cmax ([2]; 1 mg/kg, I.V.): 80 ng/mL | AUC (total) ([2]; 1 mg/kg, Sub. Q): 55 ng·h/mL | Cmax ([2]; mouse, plasma, 1 mg/kg IV bolus, read-out: Cmax): 80 ng/mL | half-life ([2]; mouse, plasma, 1 mg/kg IV bolus, read-out: t½ (converted)): 113 min | Tmax ([2]; mouse, plasma, ip, 1 mg/kg, I.P.): 15 min | Cmax ([2]; mouse, plasma, ip, 1 mg/kg, I.P., read-out: Cmax): 56 ng/mL | clearance [2, 5]: 122 mL/min/kg | Vd [2, 5]: 17.6 L/kg | Tmax [2, 6]: 0 min | clearance [2, 6]: 122 mL/min/kg | Vd [2, 6]: 17.6 L/kg | Tmax ([2]; mouse, plasma, subcutaneous, 1 mg/kg, Sub. Q): 15 min | Cmax ([2]; mouse, plasma, subcutaneous, 1 mg/kg, Sub. Q, read-out: Cmax): 42 ng/mL | IC50 (A673 (Rhabdomyosarcoma)): 0.58 ng/mL | Log 10 Cell Kill (SW48 human colon tumor): 1.9 | T-C (time to reach 1,000% Tumor Volume, treated vs control) (SW48 human colon tumor): 40 days | % TGI (SW48 human colon tumor): 86% | % TGI (SW48 human colon tumor; listed as free drug): 86% | IC50 [3]: 3.61 ng/mL | IC50 [4]: 1.61 ng/mL
